The record followed here is US6589520B1, “Treatment of psoriasis, allergies and auto-immune disorders of the skin with cis-6-hexadecenoic acid” (Beiersdorf AG, priority 1997, dated 2003).

Data set [1] in a line: solubility in water. In kind it is physicochemical. Here is the method:
If salts are sparingly soluble in water, they can be administered in the form of suspensions. […] For example, salts are preferably injected intravenously or intramuscularly in the form of an aqueous solution, such as physiological saline solution. The ampoules contain, for example, 2.5 mg of the fatty acid salt per 5 ml of solution. Ampoules containing, for example, 45 mg of fatty acid salt per milliliter of solution can also be prepared.

Data set [2] relates to macrophage. As to the kind of experiment: macrophage differentiation test. The data set is classed as cell-based. From the text: This is of importance in the prophylaxis of processes such as, for example, psoriasis or atopy or allergies or auto-immune disorders.

Structures can show the parent of a compound that is named as a salt.

For `CCCCCCC/C=C\CCCCCCCC(=O)O` [sodium salt of cis-9-heptadecenoic acid, cis-9-heptadecenoic acid], the solubility in water result in data set [1] is recorded as “particularly good solubility in water”.
As for `CCCCCCCCC/C=C\CCCCC(=O)O` [cis-6-hexadecenoic acid], the anti-inflammatory macrophage-stimulating potency entry in data set [2] is given as “showed an anti-inflammatory macrophage-stimulating potency”.
